Reference: the NIST ThermoML archive (doi:10.1016/j.tca.2007.02.005)
Numbers after ± are expanded uncertainties.

Experiments:
[1] = Molar enthalpy of transition or fusion; conditions: Crystal; DSC
[2] = Crystal; DTA

Molar enthalpy of transition or fusion [1] [kcal/mol] | Normal melting temperature [2] [°C] | Structure (SMILES)
4.3 ± 0.105 | 60.90 ± 1.2 | CCn1cc[n+](C)c1.F[P-](F)(F)(F)(F)F [1-ethyl-3-methylimidazolium hexafluorophosphate]
8.92 ± 0.194 | 274.60 ± 2.1 | c1ccc(-c2nc(-c3ccccc3)c(-c3ccccc3)[nH]2)cc1 [2,4,5-triphenyl-1H-imidazole]
7.73 ± 0.17 | 231.80 ± 2.1 | c1ccc(-c2nc[nH]c2-c2ccccc2)cc1 [4,5-diphenylimidazole]

Structure (SMILES) | Molar enthalpy of transition or fusion [1] [kcal/mol] | Normal melting temperature [2] [°C]
c1ccc(-c2ncc[nH]2)cc1 [2-phenyl-1H-imidazole] | 4.26 ± 0.108 | 146.80 ± 2.1
